System: HIV-infected subjects
Experiment: Safety and tolerability (TEAEs, ECG, laboratory) after repeated oral administration, phase 2a study
Assay type: in vivo, human
Method: Participants were assigned to one of eight groups; each group (with one exception) included eight subjects receiving either ABX464 (n = 6) or the corresponding placebo (n = 2) according to a randomization code. […] In the present study with HIV-infected subjects, the first dose administered was 25 mg, given once or 3 times a day over a 2- to 3-week period. This initial dose was therefore considered safe for assessment of the safety and tolerability of ABX464 after repeated oral administrations in subjects infected by HIV and determination of the potential effect on the HIV viral load.
The final dosing protocol for each of the eight groups was as follows: group 1, 25 mg every 3 days for 2 to 3 weeks under fasted conditions; group 2, 25 mg once a day (q.d.) for 2 to 3 weeks under fasted conditions; group 3, 50 mg once a day for 2 to 3 weeks under fasted conditions; group 4, 50 mg 3 times a day (t.i.d.) for 4 weeks under fed conditions; group 5, 75 mg once a day for 2 weeks under fed conditions; group 6, 100 mg once a day for 2 to 3 weeks under fasted conditions; group 7, 150 mg every 3 days for 2 to 3 weeks under fed conditions; and group 8, 150 mg once a day for 2 weeks under fed conditions. Per the study protocol, the treatment period was defined as 2 weeks. […] The decision to proceed to the next highest dose was determined by the data and safety monitoring board after review of the laboratory safety data, vital signs, ECGs, and adverse event reports from the group receiving the current dose after 2 weeks of treatment.
Subjects were hospitalized from the day prior to the first dose to at least the morning of day 2. They were orally dosed with 25-mg capsules of ABX464 with 240 ml water under fed or fasted conditions. According to the group, subjects were dosed with 1, 2, 3, 4, or 6 capsules to deliver 25 mg, 50 mg, 75 mg, 100 mg, or 150 mg product, respectively, or the same number of placebo capsules.
Safety assessments and laboratory tests were carried out according to the schedules described in Table S4 for groups dosed every day, every 3 days, and 3 times a day. Follow-up visits were scheduled for 7 days after the last dose and subsequently once every week in order to assess the elimination of the main ABX464 metabolite and to assess the viral load. Follow-up visits were terminated when the virus load was within 0.5 log of the baseline value or after 3 follow-up visits, whichever came first. Prior to the statistical analyses, AEs were coded using the Medical Dictionary for Regulatory Activities (MedDRA dictionary; last available version) in order to be tabulated by system organ class (SOC) and preferred term (PT). The AEs were analyzed according to the treatment emergence phase from the first study drug administration on day 1 up to 48 h after the last study drug administration. The number and percentage of subjects with at least one TEAE were tabulated by SOC and PT for each group and dose. The number of occurrences of TEAEs was also analyzed in the same way by SOC and PT for each group and dose, by grade of severity for each group and dose, and by level of causality to the study drug for each group and dose.

[1] = Group 2 (n = 6), 25 mg q.d., fasted, Moderate
[2] = Group 3 (n = 7), 50 mg q.d., fasted, Mild
[3] = Group 3 (n = 7), 50 mg q.d., fasted, Moderate
[4] = Group 4 (n = 7), 50 mg t.i.d., fed, Mild
[5] = Group 4 (n = 7), 50 mg t.i.d., fed, Moderate

FC(F)(F)Oc1ccc(Nc2ccc3cccc(Cl)c3n2)cc1 [ABX464]
3 (42.9) No. (%): Subjects experiencing at least one TEAE: Gastrointestinal disorders [4] | Subjects experiencing at least one TEAE: Musculoskeletal and connective tissue disorders [4]
2 (28.6) No. (%): Subjects experiencing at least one TEAE: Total [2] | Subjects experiencing at least one TEAE: Back pain [4] | Subjects experiencing at least one TEAE: Headache [4] | Subjects experiencing at least one TEAE: Nervous system disorders [4] | Subjects experiencing at least one TEAE: Upper abdominal pain [4]
7 (100.0) No. (%): Subjects experiencing at least one TEAE: Total [4]
0 (0.0) No. (%): Subjects experiencing at least one TEAE: Total [1] | Subjects experiencing at least one TEAE: Upper abdominal pain [1] | Subjects experiencing at least one TEAE: Vomiting [1] | Subjects experiencing at least one TEAE: Abdominal pain [2] | Subjects experiencing at least one TEAE: Back pain [2] | Subjects experiencing at least one TEAE: Diarrhea [2] | Subjects experiencing at least one TEAE: Flank pain [2] | Subjects experiencing at least one TEAE: Injury, poisoning, and procedural complications [2] | Subjects experiencing at least one TEAE: Neck pain [2] | Subjects experiencing at least one TEAE: Pain in extremity [2] | Subjects experiencing at least one TEAE: Sciatica, back pain [2] | Subjects experiencing at least one TEAE: Skin abrasion [2] | Subjects experiencing at least one TEAE: Upper abdominal pain [2] | Subjects experiencing at least one TEAE: Abdominal pain [3] | Subjects experiencing at least one TEAE: Arthralgia [3] | Subjects experiencing at least one TEAE: Back pain [3] | Subjects experiencing at least one TEAE: Diarrhea [3] | Subjects experiencing at least one TEAE: Flank pain [3] | Subjects experiencing at least one TEAE: Injury, poisoning, and procedural complications [3] | Subjects experiencing at least one TEAE: Musculoskeletal and connective tissue disorders [3] | Subjects experiencing at least one TEAE: Nausea [3] | Subjects experiencing at least one TEAE: Neck pain [3] | Subjects experiencing at least one TEAE: Pain in extremity [3] | Subjects experiencing at least one TEAE: Sciatica, back pain [3] | Subjects experiencing at least one TEAE: Skin abrasion [3] | Subjects experiencing at least one TEAE: Upper abdominal pain [3] | Subjects experiencing at least one TEAE: Vomiting [3] | Subjects experiencing at least one TEAE: Abdominal pain [4] | Subjects experiencing at least one TEAE: Diarrhea [4] | Subjects experiencing at least one TEAE: Flank pain [4] | Subjects experiencing at least one TEAE: Injury, poisoning, and procedural complications [4] | Subjects experiencing at least one TEAE: Nausea [4] | Subjects experiencing at least one TEAE: Sciatica, back pain [4] | Subjects experiencing at least one TEAE: Skin abrasion [4] | Subjects experiencing at least one TEAE: Abdominal pain [5] | Subjects experiencing at least one TEAE: Arthralgia [5] | Subjects experiencing at least one TEAE: Back pain [5] | Subjects experiencing at least one TEAE: Diarrhea [5] | Subjects experiencing at least one TEAE: Flank pain [5] | Subjects experiencing at least one TEAE: Headache [5] | Subjects experiencing at least one TEAE: Injury, poisoning, and procedural complications [5] | Subjects experiencing at least one TEAE: Musculoskeletal and connective tissue disorders [5] | Subjects experiencing at least one TEAE: Nausea [5] | Subjects experiencing at least one TEAE: Neck pain [5] | Subjects experiencing at least one TEAE: Nervous system disorders [5] | Subjects experiencing at least one TEAE: Pain in extremity [5] | Subjects experiencing at least one TEAE: Sciatica, back pain [5] | Subjects experiencing at least one TEAE: Skin abrasion [5] | Subjects experiencing at least one TEAE: Vomiting [5] | Subjects experiencing at least one TEAE: Abdominal pain (Group 5 (n = 6), 75 mg q.d., fed, Mild)
1 (14.3) No. (%): Subjects experiencing at least one TEAE: Arthralgia [2] | Subjects experiencing at least one TEAE: Gastrointestinal disorders [2] | Subjects experiencing at least one TEAE: Headache [2] | Subjects experiencing at least one TEAE: Musculoskeletal and connective tissue disorders [2] | Subjects experiencing at least one TEAE: Nausea [2] | Subjects experiencing at least one TEAE: Nervous system disorders [2] | Subjects experiencing at least one TEAE: Vomiting [2] | Subjects experiencing at least one TEAE: Headache [3] | Subjects experiencing at least one TEAE: Nervous system disorders [3] | Subjects experiencing at least one TEAE: Total [3] | Subjects experiencing at least one TEAE: Arthralgia [4] | Subjects experiencing at least one TEAE: Neck pain [4] | Subjects experiencing at least one TEAE: Pain in extremity [4] | Subjects experiencing at least one TEAE: Vomiting [4] | Subjects experiencing at least one TEAE: Gastrointestinal disorders [5] | Subjects experiencing at least one TEAE: Total [5] | Subjects experiencing at least one TEAE: Upper abdominal pain [5]

— article PMC5487684, “Safety, Pharmacokinetics, and Antiviral Activity of a Novel HIV Antiviral, ABX464, in Treatment-Naive HIV-Infected Subjects in a Phase 2 Randomized, Controlled Study” (Antimicrobial Agents and Chemotherapy, 2017)
